Experimental data: patent publication US8653304B2, “2,3-dihydro-1H-indene-2-yl urea derivative and pharmaceutical application of same” (Toray Industries, Inc., priority 2009, dated 2014)

Key:
[1] = molecular target: human p38 MAPK α (Homo sapiens (Human), UniProt Q16539); experiment: Evaluation of p38 MAPK inhibitory activity (Alpha Screen, ATF2 phosphorylation); type: biochemical; conditions: p38α/SAPK2a 1.5 nM, ATP 100 μM, biotinylated ATF2 30 nM
Description: Using human p38 MAPK α, the p38 MAPK inhibitory activity of Compound (I) was studied by a method partially modified from the method described in Current Medicinal Chemistry (2004, No. 11, pp. 721-730).
A solution of each test compound solution in 100% DMSO and a p38α/SAPK2a solution (Final Concentration: 1.5 nM) (Invitrogen) were added to a 384-well plate, and then the plate was incubated at room temperature in a dark place for 1 hour. Thereafter, ATP (Final Concentration: 100 μM), which is a phosphate donor, and biotinylated ATF2 (Final Concentration: 30 nM) (upstate), which is a substrate, were added, and the resulting mixture was allowed to react at room temperature in a dark place for 1 hour (the final concentration of DMSO was 0.25%). After the reaction, an anti-phosphorylated ATF2 antibody (Final Concentration: 1 nM) (Cell Signaling), anti-IgG acceptor beads (Final Concentration: 20 μg/mL) (PerkinElmer) and streptavidin donor beads (Final Concentration: 20 μg/mL) (PerkinElmer) were added, and the resultant was incubated at room temperature in a dark place for 1 hour. Using a microplate analyzer (Fusion-α, Packard) in Alpha Screen method (Amplified Luminescent Proximity Homogeneous Assay), the light emission was detected. The IC50 value of each compound was calculated by sigmoidal dose-response regression using Prism 4.02 (GraphPad Software, Inc.).

[2] = tested on: TNFα production; experiment: Cytokine production suppressing activity using human whole blood (LPS stimulation); type: cell-based; conditions: LPS 200 ng/mL, 37° C., 5 hours
Description: Using human whole blood, the inhibitory action of Compound (I) on the TNFα production by LPS stimulation was studied by a method partially modified from the method described in Journal of Medicinal Chemistry (2003, Vol. 46, pp. 4676-4686).
A solution of each test compound in 100% DMSO and human blood were mixed in a 96-well flat-bottom plate. Thereafter, LPS (Final Concentration: 200 ng/mL) was added, and the resulting mixture was allowed to react at 37° C. for 5 hours (the final concentration of DMSO was 0.2%). After the reaction, the resultant was centrifuged for 20 minutes at room temperature, and the supernatant was collected. For the measurement of the TNFα amount in the supernatant, a human cytokine kit (CIS bio international) was used. As a comparative control compound, Comparative Compound 2 was used.

[3] = Pharmacokinetic evaluation in mouse (oral); type: in vivo; conditions: male; BALB/c mouse, oral 0.8 mg/kg, plasma
Description: Each test compound was dissolved in 10% HP-β-CD (Nihon Shokuhin Kako Co., Ltd.) to prepare a solution to be administered (0.08 mg/mL, as a solution to be administered for oral administration). To each BALB/c mouse (male, 7-week old, Charles River Laboratories Japan, Inc.), each compound was orally administered at a dose of 0.8 mg/kg. Blood was collected from the jugular vein or heart with time up to 24 hours after the administration. The obtained blood was centrifuged to collect blood plasma. The blood plasma was pretreated by methanol extraction method, and the concentration of the compound was analyzed by LC/MS/MS (ESI positive mode).
In this table, Cmax represents a maximum plasma concentration; and AUC0-∞ represents an area under the curve of the plasma concentration of the compound from after the compound administration to infinite time.

[4] = tested on: ICR mouse; experiment: Evaluation of hepatotoxicity in mouse (plasma AST); type: in vivo; conditions: oral 500 mg/kg, plasma on the day after administration
Description: Compound (I) was suspended in 0.5% methylcellulose (Wako Pure Chemical Industries, Ltd.) to prepare a 50 mg/mL solution to be administered. To each ICR mouse (male, 7-week old, Charles River Laboratories Japan, Inc.), each compound was orally administered at a dose of 500 mg/kg. On the day after the administration, blood was collected from the posterior vena cava, and the obtained blood was centrifuged to collect blood plasma. AST (aspartate aminotransferase) value, which is a marker of hepatic disorders in blood plasma, was measured with a biochemistry automatic analyzer (Hitachi 7070, Hitachi, Ltd.). Comparative Compound 4 was suspended in 0.5% sodium carboxymethylcellulose (Wako Pure Chemical Industries, Ltd.) before use.

Sequence of human p38 MAPK α (Q16539 whole entry): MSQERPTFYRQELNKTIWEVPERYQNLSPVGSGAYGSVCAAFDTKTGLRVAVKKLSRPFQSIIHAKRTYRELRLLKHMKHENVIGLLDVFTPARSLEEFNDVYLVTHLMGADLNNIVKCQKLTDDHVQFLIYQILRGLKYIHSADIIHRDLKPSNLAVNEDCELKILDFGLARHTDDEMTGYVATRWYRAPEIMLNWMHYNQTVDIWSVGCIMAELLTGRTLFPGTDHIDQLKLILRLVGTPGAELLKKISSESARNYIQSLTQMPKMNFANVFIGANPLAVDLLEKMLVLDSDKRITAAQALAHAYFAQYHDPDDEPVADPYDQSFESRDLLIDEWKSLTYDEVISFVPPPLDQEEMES

Structure (SMILES) | IC50 [1] | IC50 [2] | other results
COc1c(NC(=O)N[C@@H]2Cc3c(F)cccc3[C@@H]2O)cc(N2CCOCC2)cc1[C@H](O)C(F)(F)F (single isomer, unassigned) [Compound 84b] | 16 nM | 115 nM | –
COc1c(NC(=O)NC2Cc3ccccc3C2)cc(C(C)(C)C)cc1C(O)C(F)(F)F (stereo not drawn) [Comparative Compound 1, 1-(5-tert-butyl-2-methoxy-3-(2,2,2-trifluoro-1-hydroxyethyl)phenyl)-3-(2,3-dihydro-1H-indene-2-yl)urea, reference compound] | 117 nM | – | –
COc1c(CO)cc(C(C)(C)C)cc1NC(=O)NC1Cc2ccccc2C1 [Comparative Compound 2, 1-(5-tert-butyl-3-(hydroxymethyl)-2-methoxyphenyl)-3-(2,3-dihydro-1H-indene-2-yl)urea] | – | 5190 nM | AUC(0-inf) [3]: 116 ng·h/mL; Cmax [3]: 79.7 ng/mL
Cc1ccc(-n2nc(C(C)(C)C)cc2NC(=O)Nc2ccc(OCCN3CCOCC3)c3ccccc23)cc1 [Comparative Compound 4, 1-(3-tert-butyl-1-p-tolyl-1H-pyrazol-5-yl)-3-(4-(2-morpholinoethoxy)naphthalen-1-yl)urea, reference compound] | – | – | AST value [4]: 145 U/L
C[S+]([O-])c1ccc(-c2nc(-c3ccncc3)c(-c3ccc(F)cc3)[nH]2)cc1 (stereo not drawn) [Comparative Compound 5, 4-(4-(4-fluorophenyl)-2-(4-(methylsulfinyl)phenyl)-1H-imidazol-5-yl)pyridine] | – | – | AUC(0-inf) [3]: 59.8 ng·h/mL; Cmax [3]: 11.4 ng/mL
COc1c(CO)cc(C(C)(C)C)cc1NC(=O)N[C@@H]1Cc2c(F)cccc2[C@@H]1O [Compound 3, 1-(5-tert-butyl-3-(hydroxymethyl)-2-methoxyphenyl)-3-((1S,2R)-4-fluoro-1-hydroxy-2,3-dihydro-1H-indene-2-yl)urea] | – | 235 nM | –

Further lines, with some results ahead:

IC50 [1] | IC50 [2] | Structure (SMILES) | other results
24 nM | 109 nM | COc1cccc2c1C[C@@H](NC(=O)Nc1cc(C(C)(C)C)cc([C@H](O)C(F)(F)F)c1OC)[C@H]2O (single isomer, unassigned) [Compound 52b] | –
29 nM | – | CCC(C)(C)c1cc(NC(=O)N[C@@H]2Cc3ccccc3[C@@H]2O)c(OC)c([C@H](O)C(F)(F)F)c1 (single isomer, unassigned) [Compound 123b] | –
18 nM | – | COc1c(NC(=O)N[C@@H]2Cc3ccccc3[C@@H]2O)cc(C(C)(C)C)cc1C(N)C(F)(F)F (stereo partly drawn) [Compound 47b, 1-(3-(1-amino-2,2,2-trifluoroethyl)-5-tert-butyl-2-methoxyphenyl)-3-((1S,2R)-1-hydroxy-2,3-dihydro-1H-indene-2-yl)urea] | –
– | 182 nM | COc1c(NC(=O)N[C@H]2Cc3ccc(F)cc3[C@H]2O)cc(C(C)(C)C)cc1[C@@H](O)C(F)(F)F [Compound 60b, 1-(5-tert-butyl-2-methoxy-3-((R)-2,2,2-trifluoro-1-hydroxyethyl)phenyl)-3-(cis-6-fluoro-1-hydroxy-2,3-dihydro-1H-indene-2-yl)urea] | –
